Assay results as given in patent US5877166A, “Enantiomerically pure 2-aminopurine phosphonate nucleotide analogs as antiviral agents” (priority 1997, dated 1999).
Values after ≈ are worked out from the molar mass of the structure shown. Where two headings read alike, the source gives them in different places.

Assays:
murine cytomegalovirus = assay: Activity against a murine cytomegalovirus infection in normal BALB/c mice; type: in vivo
Description: Activities of 1-5 and 1-6
Against a murine cytomegalovirus infection
^a Treatments were given once daily for 5 days starting 24 hours afte

[1] = Toxicity to uninfected BALB/c mice; type: in vivo; conditions: mouse, in vivo, once daily for 15 days, read-out: Survivors (%)
From the text: (§1) Toxicity of 1-5 to uninfected BALB/c mice.
(§2) ^a Treatments were given once daily for 15 days.
(§3) ^b Difference in weight (in grams) between day 0 and day 16.

uninfected BALB/c mice = assay: Toxicity to uninfected BALB/c mice; type: in vivo; conditions: for Kidney Damage (%) / Survivors/Total: once daily for 15 days; for Weight Change: between day 0 and day 16
From the text: as §1, §2, §3

HCMV, Strain D-16 = assay: Antiviral activity (plaque reduction) vs. HCMV, Strain D-16 in MRC-5 cells; type: cell-based, human cytomegalovirus (HCMV); conditions: for TI (therapeutic index, ratio of the median cytotoxic dose to the median effective dose): CD50/ED50, 4320 min; for inhibition at 1 µg/mL / inhibition at 3.2 µg/mL / inhibition at 10 µg/mL / inhibition at 32 µg/mL / inhibition at 100 µg/mL / inhibition at 316 µg/mL: Human betaherpesvirus 5, MRC5, 72 h, read-out: % Reduction (plaques); for EC50: Human betaherpesvirus 5, MRC5, 72 hours, MRC-5 cells, read-out: ED50 (median effective antiviral dose)
in vitro = type: cell-based; conditions: human, mrc-5 cells
Description: The herpes strain employed was Strain D-16 of HCMV. Continuous passaged MRC-5 cells obtained from the American Type Culture Collection (Bethesda, Md.) were used for testing, with growth medium consisting of Minimum Essential Medium (MEM) supplemented with 0.1% NaHCO3 and […] gentamicin.
To a 96-well microtiter plate containing an established 24-hour monolayer of cells from which the medium had been decanted was added 0.1 mL of varying (one-half log10) concentration of test compound, which incubated on the cell 15 minutes, after which 0.1 mL of virus in a concentration of 320 cell culture 50% infectious doses (CCID50)/0.1 mL was added. The plate was covered with plastic wrap and incubated at 37° C. The cells were examined microscopically after 72 hours. The ED50 (the median effective antiviral dose, i.e., that dose which is effective in 50% of the cells), CD50 (the median cytotoxic dose, i.e., that dose which produces cytotoxicity in 50% of the cells), and TI (the therapeutic index, meaning the ratio of the median cytotoxic dose to the median effective dose) were evaluated.

[2] = 5 mg/kg/day, once daily for 5 days
[3] = 10 mg/kg/day, once daily for 5 days
[4] = 20 mg/kg/day, once daily for 5 days
[5] = 40 mg/kg/day, once daily for 5 days
[6] = 40 mg/kg/day, once daily for 5 days starting 24 hours after virus challenge

| SMILES | Mean Day to Death (murine cytomegalovirus; [2]) [days] | Survivors (%) (murine cytomegalovirus; [2]) | Survivors/Total (murine cytomegalovirus; [2]) | Mean Day to Death (murine cytomegalovirus; [3]) [days] | Survivors (%) (murine cytomegalovirus; [3]) | Survivors/Total (murine cytomegalovirus; [3]) | Mean Day to Death (murine cytomegalovirus; [4]) [days] | Survivors (%) (murine cytomegalovirus; [4]) | Survivors/Total (murine cytomegalovirus; [4]) | Mean Day to Death (murine cytomegalovirus; [5]) [days] | Survivors (%) (murine cytomegalovirus; [5]) | Survivors/Total (murine cytomegalovirus; [6]) | Number of Plaques (HCMV, Strain D-16; 1 μg/mL) | Number of Plaques (HCMV, Strain D-16; 3.2 μg/mL) | Number of Plaques (HCMV, Strain D-16; 10 μg/mL) | Number of Plaques (HCMV, Strain D-16; 32 μg/mL) | Number of Plaques (HCMV, Strain D-16; 100 μg/mL) | Number of Plaques (HCMV, Strain D-16; 316 μg/mL) | TI (therapeutic index, ratio of the median cytotoxic dose to the median effective dose) (HCMV, Strain D-16) | inhibition at 1 µg/mL (HCMV, Strain D-16; 1 μg/mL) [%] | also measured |
| --- | --- | --- | --- | --- | --- | --- | --- | --- | --- | --- | --- | --- | --- | --- | --- | --- | --- | --- | --- | --- | --- |
| Nc1ncc2ncn(CO[C@@H](CO)CCP(=O)(O)O)c2n1 [Compound 1-5, 2-Amino-9-[(R(-)-1-hydroxymethyl-3-phosphono)-1-propyloxymethyl]-9H-purine] | 9.6 ± 4.6 | 50 | 5/10 | 10.0 ± 3.6 | 70 | 7/10 | 11.5 ± 0.7 | 80 | 8/10 | > 21 | 100 | 10/10 |  |  |  |  |  |  |  |  | survival ([1]; 100 mg/kg/day): 100%; survival ([1]; 200 mg/kg/day): 100%; survival ([1]; 400 mg/kg/day): 100%; survival ([1]; 600 mg/kg/day): 100%; Kidney Damage (%) (uninfected BALB/c mice; 100 mg/kg/day): 0%; Survivors/Total (uninfected BALB/c mice; 100 mg/kg/day): 3/3; Weight Change (uninfected BALB/c mice; 100 mg/kg/day): +7.0 grams; Kidney Damage (%) (uninfected BALB/c mice; 200 mg/kg/day): 0%; Survivors/Total (uninfected BALB/c mice; 200 mg/kg/day): 3/3; Weight Change (uninfected BALB/c mice; 200 mg/kg/day): +7.8 grams; Kidney Damage (%) (uninfected BALB/c mice; 400 mg/kg/day): 0%; Survivors/Total (uninfected BALB/c mice; 400 mg/kg/day): 3/3; Weight Change (uninfected BALB/c mice; 400 mg/kg/day): +6.6 grams; Kidney Damage (%) (uninfected BALB/c mice; 600 mg/kg/day): 0%; Survivors/Total (uninfected BALB/c mice; 600 mg/kg/day): 3/3; Weight Change (uninfected BALB/c mice; 600 mg/kg/day): +4.5 grams |
| Nc1ncc2ncn(CO[C@@H]3CCP(=O)(O)OC3)c2n1 [Compound 1-6] | 6.4 ± 0.5 | 0 | 0/10 | 7.4 ± 2.0 | 0 | 0/10 | 6.1 ± 0.4 | 30 | 3/10 | 8.3 ± 4.9 | 40 | 4/10 | 51.0 | 56.0 | 33.0 | 6.5 | 0.0 | 0.0 | 73 | 37 | % Reduction (given as toxic) (HCMV, Strain D-16; 1000 μg/mL): toxic; Number of Plaques (given as toxic) (HCMV, Strain D-16; 1000 μg/mL): toxic; inhibition at 3.2 µg/mL (HCMV, Strain D-16; 3.2 μg/mL): 31%; inhibition at 10 µg/mL (HCMV, Strain D-16; 10 μg/mL): 59%; inhibition at 32 µg/mL (HCMV, Strain D-16; 32 μg/mL): 92%; inhibition at 100 µg/mL (HCMV, Strain D-16; 100 μg/mL): 100%; inhibition at 316 µg/mL (HCMV, Strain D-16; 316 μg/mL): 100%; EC50 (HCMV, Strain D-16): 6.7 µg/mL (≈ 22.4 µM); CC50 at 72 h (in vitro): 487 µg/mL (≈ 1630 µM) |
| Nc1nc2c(ncn2COC(CO)CO)c(=O)[nH]1 [DHPG, 9-[(1,3dihydroxy-2-propoxy)methyl] guanine, reference compound] |  |  |  |  |  |  |  |  |  |  |  |  | 69.0 | 57.0 | 24.5 | 2.0 | 0.0 | 0.0 | > 44 | 0 | inhibition at 3.2 µg/mL (HCMV, Strain D-16; 3.2 μg/mL): 0%; inhibition at 10 µg/mL (HCMV, Strain D-16; 10 μg/mL): 70%; inhibition at 32 µg/mL (HCMV, Strain D-16; 32 μg/mL): 98%; inhibition at 100 µg/mL (HCMV, Strain D-16; 100 μg/mL): 100%; inhibition at 316 µg/mL (HCMV, Strain D-16; 316 μg/mL): 100%; EC50 (HCMV, Strain D-16): 7.2 µg/mL (≈ 28.2 µM); CC50 at 72 h (in vitro): > 316 µg/mL |
